Experimental data: the NIST ThermoML archive (doi:10.1021/je900689m)
± gives the expanded uncertainty stated by the source.

Experiments:
[1] = 101 kPa, Liquid; for viscosity: Capillary tube (Ostwald / Ubbelohde) method
[2] = xn = mol fraction of the nth substance listed; conditions: 101 kPa, Liquid; for viscosity: Capillary tube (Ostwald / Ubbelohde) method

CCOC=O [ethyl methanoate]
[1]
Conditions | mass density [kg/m3] | speed of sound [m/s] | viscosity [mPa·s]
303.15 K | 907.8 ± 0.7 | 1092 ± 5 | 0.373 ± 0.011
308.15 K | 902.6 ± 0.7 | 1072 ± 5 | 0.345 ± 0.01
313.15 K | 897.1 ± 0.7 | 1052 ± 5 | 0.324 ± 0.01

CCOC=O [ethyl methanoate] + CC(C)Cc1ccccc1
[2], x1 = 1
Conditions | mass density [kg/m3] | speed of sound [m/s] | viscosity [mPa·s]
303.15 K | 907.8 ± 0.7 | 1092 ± 5 | 0.373 ± 0.011
308.15 K | 902.6 ± 0.7 | 1072 ± 5 | 0.345 ± 0.01
313.15 K | 897.1 ± 0.7 | 1052 ± 5 | 0.324 ± 0.01

CCOC=O [ethyl methanoate] + CC(C)c1ccccc1
[2], x1 = 1
Conditions | mass density [kg/m3] | speed of sound [m/s] | viscosity [mPa·s]
303.15 K | 907.8 ± 0.7 | 1092 ± 5 | 0.373 ± 0.011
308.15 K | 902.6 ± 0.7 | 1072 ± 5 | 0.345 ± 0.01
313.15 K | 897.1 ± 0.7 | 1052 ± 5 | 0.324 ± 0.01

CCOC=O [ethyl methanoate] + CCCCc1ccccc1
[2], x1 = 1
Conditions | mass density [kg/m3] | speed of sound [m/s] | viscosity [mPa·s]
303.15 K | 907.8 ± 0.7 | 1092 ± 5 | 0.373 ± 0.011
308.15 K | 902.6 ± 0.7 | 1072 ± 5 | 0.345 ± 0.01
313.15 K | 897.1 ± 0.7 | 1052 ± 5 | 0.324 ± 0.01

CCOC=O [ethyl methanoate] + c1ccccc1
[2]
Conditions | mass density, 303.15 K [kg/m3] | mass density, 308.15 K [kg/m3] | mass density, 313.15 K [kg/m3] | speed of sound, 303.15 K [m/s] | speed of sound, 308.15 K [m/s] | speed of sound, 313.15 K [m/s] | viscosity, 303.15 K [mPa·s] | viscosity, 308.15 K [mPa·s] | viscosity, 313.15 K [mPa·s]
x1 = 0.1089 | 870.4 ± 0.7 | 865.8 ± 0.7 | 861.3 ± 0.7 | 1252 ± 6 | 1228 ± 6 | 1208 ± 5 | 0.529 ± 0.011 | 0.499 ± 0.011 | 0.468 ± 0.011
x1 = 0.2169 | 873.5 ± 0.7 | 868.9 ± 0.7 | 864.3 ± 0.7 | 1228 ± 6 | 1208 ± 5 | 1188 ± 5 | 0.493 ± 0.011 | 0.46 ± 0.011 | 0.428 ± 0.011
x1 = 0.3189 | 876.9 ± 0.7 | 872.2 ± 0.7 | 867.5 ± 0.7 | 1208 ± 5 | 1188 ± 5 | 1168 ± 5 | 0.462 ± 0.011 | 0.431 ± 0.011 | 0.401 ± 0.011
x1 = 0.4239 | 880.8 ± 0.7 | 876 ± 0.7 | 871.2 ± 0.7 | 1188 ± 5 | 1168 ± 5 | 1148 ± 5 | 0.439 ± 0.011 | 0.408 ± 0.011 | 0.38 ± 0.011
x1 = 0.5253 | 884.9 ± 0.7 | 880.1 ± 0.7 | 875.2 ± 0.7 | 1172 ± 5 | 1152 ± 5 | 1132 ± 5 | 0.422 ± 0.011 | 0.392 ± 0.011 | 0.364 ± 0.01
x1 = 0.6233 | 889.1 ± 0.7 | 884.2 ± 0.7 | 879.2 ± 0.7 | 1156 ± 5 | 1136 ± 5 | 1116 ± 5 | 0.41 ± 0.011 | 0.38 ± 0.011 | 0.354 ± 0.01
x1 = 0.7211 | 893.6 ± 0.7 | 888.6 ± 0.7 | 883.4 ± 0.7 | 1140 ± 5 | 1120 ± 5 | 1100 ± 5 | 0.399 ± 0.011 | 0.37 ± 0.01 | 0.348 ± 0.01
x1 = 0.8148 | 898.1 ± 0.7 | 893 ± 0.7 | 887.7 ± 0.7 | 1124 ± 5 | 1104 ± 5 | 1084 ± 5 | 0.389 ± 0.011 | 0.364 ± 0.01 | 0.338 ± 0.01
x1 = 0.9088 | 903 ± 0.7 | 897.8 ± 0.7 | 892.3 ± 0.7 | 1108 ± 5 | 1088 ± 5 | 1068 ± 5 | 0.379 ± 0.011 | 0.355 ± 0.01 | 0.329 ± 0.01
x1 = 1 | 907.8 ± 0.7 | 902.6 ± 0.7 | 897.1 ± 0.7 | 1092 ± 5 | 1072 ± 5 | 1052 ± 5 | 0.373 ± 0.011 | 0.345 ± 0.01 | 0.324 ± 0.01

CC(C)c1ccccc1 [isopropylbenzene]
[1]
Conditions | mass density [kg/m3] | speed of sound [m/s] | viscosity [mPa·s]
303.15 K | 852.7 ± 0.7 | 1280 ± 6 | 0.69 ± 0.011
308.15 K | 849 ± 0.7 | 1264 ± 6 | 0.651 ± 0.011
313.15 K | 845.4 ± 0.7 | 1248 ± 6 | 0.611 ± 0.011

CC(C)c1ccccc1 [isopropylbenzene] + CCOC=O
[2]
Conditions | mass density, 303.15 K [kg/m3] | mass density, 308.15 K [kg/m3] | mass density, 313.15 K [kg/m3] | speed of sound, 303.15 K [m/s] | speed of sound, 308.15 K [m/s] | speed of sound, 313.15 K [m/s] | viscosity, 303.15 K [mPa·s] | viscosity, 308.15 K [mPa·s] | viscosity, 313.15 K [mPa·s]
x2 = 0 | 852.7 ± 0.7 | 849 ± 0.7 | 845.4 ± 0.7 | 1280 ± 6 | 1264 ± 6 | 1248 ± 6 | 0.69 ± 0.011 | 0.651 ± 0.011 | 0.611 ± 0.011
x2 = 0.1603 | 857 ± 0.7 | 853.2 ± 0.7 | 849.4 ± 0.7 | 1252 ± 6 | 1240 ± 6 | 1228 ± 6 | 0.63 ± 0.011 | 0.585 ± 0.011 | 0.544 ± 0.011
x2 = 0.3007 | 861.7 ± 0.7 | 857.7 ± 0.7 | 853.7 ± 0.7 | 1228 ± 6 | 1216 ± 5 | 1200 ± 5 | 0.577 ± 0.011 | 0.537 ± 0.011 | 0.499 ± 0.011
x2 = 0.4234 | 866.5 ± 0.7 | 862.4 ± 0.7 | 858.3 ± 0.7 | 1204 ± 5 | 1192 ± 5 | 1176 ± 5 | 0.534 ± 0.011 | 0.497 ± 0.011 | 0.46 ± 0.011
x2 = 0.5352 | 871.9 ± 0.7 | 867.7 ± 0.7 | 863.3 ± 0.7 | 1180 ± 5 | 1168 ± 5 | 1152 ± 5 | 0.5 ± 0.011 | 0.463 ± 0.011 | 0.431 ± 0.011
x2 = 0.633 | 877.4 ± 0.7 | 872.9 ± 0.7 | 868.4 ± 0.7 | 1160 ± 5 | 1148 ± 5 | 1132 ± 5 | 0.468 ± 0.011 | 0.437 ± 0.011 | 0.409 ± 0.011
x2 = 0.7203 | 882.8 ± 0.7 | 878.2 ± 0.7 | 873.7 ± 0.7 | 1144 ± 5 | 1132 ± 5 | 1116 ± 5 | 0.444 ± 0.011 | 0.414 ± 0.011 | 0.386 ± 0.011
x2 = 0.801 | 888.9 ± 0.7 | 884.2 ± 0.7 | 879.3 ± 0.7 | 1128 ± 5 | 1116 ± 5 | 1100 ± 5 | 0.424 ± 0.011 | 0.394 ± 0.011 | 0.367 ± 0.01
x2 = 0.8724 | 894.8 ± 0.7 | 890 ± 0.7 | 884.9 ± 0.7 | 1116 ± 5 | 1100 ± 5 | 1084 ± 5 | 0.407 ± 0.011 | 0.382 ± 0.011 | 0.359 ± 0.01
x2 = 0.9399 | 901.3 ± 0.7 | 896.4 ± 0.7 | 891.1 ± 0.7 | 1104 ± 5 | 1088 ± 5 | 1068 ± 5 | 0.39 ± 0.011 | 0.362 ± 0.01 | 0.34 ± 0.01
